Experiments:
[1] = molecular target: Dipeptidyl peptidase 8 (Homo sapiens, UniProt Q6V1X1); assay: Inhibition of DPP8
[2] = molecular target: Dipeptidyl peptidase 4 (Homo sapiens, UniProt P27487); assay: Inhibition of DPP4
[3] = molecular target: T1, Dipeptidyl peptidase 2 (Homo sapiens, UniProt Q9UHL4); assay: Inhibition of DPP2
[4] = molecular target: T1, Dipeptidyl peptidase 2; assay: Inhibition of DPP II
[5] = species: Homo sapiens; assay: Selectivity for DPP2 over DPP8

Sequence of Dipeptidyl peptidase 8 (Q6V1X1 whole entry): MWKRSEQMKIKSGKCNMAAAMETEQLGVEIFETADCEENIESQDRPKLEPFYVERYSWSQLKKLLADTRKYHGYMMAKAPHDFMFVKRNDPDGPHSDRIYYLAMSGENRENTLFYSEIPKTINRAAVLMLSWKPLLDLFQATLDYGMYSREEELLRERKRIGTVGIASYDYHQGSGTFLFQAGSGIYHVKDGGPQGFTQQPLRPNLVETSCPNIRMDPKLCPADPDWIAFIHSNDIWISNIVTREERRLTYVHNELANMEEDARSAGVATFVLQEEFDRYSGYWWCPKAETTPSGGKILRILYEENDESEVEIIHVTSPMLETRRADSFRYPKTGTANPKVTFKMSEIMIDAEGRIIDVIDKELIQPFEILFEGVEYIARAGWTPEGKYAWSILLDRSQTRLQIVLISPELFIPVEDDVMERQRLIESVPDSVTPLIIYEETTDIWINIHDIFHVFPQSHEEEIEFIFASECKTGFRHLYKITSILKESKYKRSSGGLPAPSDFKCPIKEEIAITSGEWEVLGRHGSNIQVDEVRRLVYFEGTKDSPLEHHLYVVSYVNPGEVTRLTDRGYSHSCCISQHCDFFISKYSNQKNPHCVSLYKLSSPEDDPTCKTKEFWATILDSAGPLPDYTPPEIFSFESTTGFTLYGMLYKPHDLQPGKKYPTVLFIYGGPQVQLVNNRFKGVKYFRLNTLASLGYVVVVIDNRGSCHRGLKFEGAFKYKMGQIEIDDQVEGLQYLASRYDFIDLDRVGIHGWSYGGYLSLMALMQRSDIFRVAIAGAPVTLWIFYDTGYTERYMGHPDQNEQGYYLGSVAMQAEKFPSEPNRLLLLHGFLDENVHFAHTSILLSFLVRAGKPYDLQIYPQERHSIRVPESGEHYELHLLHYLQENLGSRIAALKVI
Sequence of Dipeptidyl peptidase 4 (P27487 whole entry): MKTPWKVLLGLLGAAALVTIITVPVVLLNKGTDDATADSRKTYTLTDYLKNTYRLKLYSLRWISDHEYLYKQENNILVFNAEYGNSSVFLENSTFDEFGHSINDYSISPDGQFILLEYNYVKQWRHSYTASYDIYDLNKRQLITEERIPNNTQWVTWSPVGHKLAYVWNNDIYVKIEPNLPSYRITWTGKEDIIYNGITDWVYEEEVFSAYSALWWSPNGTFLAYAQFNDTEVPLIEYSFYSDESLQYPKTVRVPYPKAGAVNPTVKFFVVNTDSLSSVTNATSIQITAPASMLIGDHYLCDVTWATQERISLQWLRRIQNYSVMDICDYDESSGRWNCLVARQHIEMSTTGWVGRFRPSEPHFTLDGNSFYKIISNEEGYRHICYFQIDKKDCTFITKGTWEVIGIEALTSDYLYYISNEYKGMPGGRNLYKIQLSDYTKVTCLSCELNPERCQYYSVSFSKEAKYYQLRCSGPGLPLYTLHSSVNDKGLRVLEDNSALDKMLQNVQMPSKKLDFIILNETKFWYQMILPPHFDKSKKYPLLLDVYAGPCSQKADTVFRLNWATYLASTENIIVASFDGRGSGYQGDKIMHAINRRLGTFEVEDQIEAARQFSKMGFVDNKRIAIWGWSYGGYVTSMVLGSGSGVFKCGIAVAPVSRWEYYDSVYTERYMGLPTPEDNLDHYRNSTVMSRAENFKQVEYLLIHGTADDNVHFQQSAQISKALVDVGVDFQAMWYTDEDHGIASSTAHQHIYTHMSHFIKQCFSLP

`CC[C@@H](C[C@H](N)C(=O)N1CCCCC1)NCc1ccc(Cl)cc1` gave an IC50 [1] greater than 100 µM and an IC50 [2] greater than 100 µM.
Work on `N[C@@H](C[C@H](Cc1ccccc1)NCc1ccc(Cl)cc1)C(=O)N1CCCCC1` yielded an IC50 [1] greater than 100 µM and an IC50 [2] greater than 125 µM.
`N[C@@H](C[C@@H](Cc1ccccc1)NCc1ccc(Cl)cc1)C(=O)N1CCCCC1` showed an IC50 [1] greater than 500 µM and an IC50 [2] greater than 125 µM.
Work on `CCC(C)[C@@H](C[C@H](N)C(=O)N1CCCCC1)NCc1ccc(Cl)cc1` (some centres not stated) yielded an IC50 [1] greater than 100 µM and an IC50 [2] of 234 µM.
For `C[C@@H](C[C@H](N)C(=O)N1CCCCC1)NCc1ccc(Cl)cc1`, the IC50 [2] was 325 µM.
`C[C@H](C[C@H](N)C(=O)N1CCCCC1)NCc1ccc(Cl)cc1` showed an IC50 [2] greater than 250 µM.
`CC(C)[C@@H](C[C@H](N)C(=O)N1CCCCC1)NCc1ccc(Cl)cc1` showed an IC50 [1] greater than 100 µM and an IC50 [2] greater than 125 µM.
In the case of `N[C@@H](CCNCc1ccc(Cl)cc1)C(=O)N1CCCCC1`, the IC50 [1] is reported as 142 µM, the IC50 [3] is reported as 0.00022 µM and the Ki [4] is reported as 0.082 nM. The IC50 [2] was 196 µM and the Selectivity index [5] was greater than 10000.

Source: ChEMBL document CHEMBL1149358, “Synthesis and dipeptidyl peptidase inhibition of N-(4-substituted-2,4-diaminobutanoyl)piperidines” (Bioorg Med Chem Lett, 2006)
